Measured values from ChEMBL document CHEMBL4177762, “Combined Approach of Backbone Amide Linking and On-Resin N-Methylation for the Synthesis of Bioactive and Metabolically Stable Peptides” (J Med Chem, 2018).
Converted amounts (≈) assume the structure as drawn. The source made the active and inactive calls. No cut-off for these calls is given here. Non-standard residues stand in square brackets, D forms with d. Residues, ends and D or L forms follow the SMILES beside them. *: point of attachment. NH(2-(1-naphthyl)ethyl) = c1ccc2c(CCN*)cccc2c1; Tryptamide = c1ccc2c(CCN*)c[nH]c2c1; NMeF = CN[C@@H](Cc1ccccc1)C(=O)O; NMeL = CN[C@@H](CC(C)C)C(=O)O; NHPhenethyl = c1ccc(CCN*)cc1; NMeV = CN[C@H](C(=O)O)C(C)C; NMeC = CN[C@@H](CS)C(=O)O; NMeA = CN[C@@H](C)C(=O)O

Columns and labels:
[1] = system: Trypanosoma brucei rhodesiense; assay: Antiprotozoal activity against trypomastigote stage of Trypanosoma brucei rhodesiense STIB900 after 72 hrs by Alamar Blue assay; type: functional, organism-based; details: for IC50: STIB900, 72 h
[2] = Passive permeability of the compound at 500 uM after 5 hrs by PAMPA; type: ADME
[3] = Half life in Galleria mellonella hemolymph plasma at 0.5 mM by HPLC-MS method; type: ADME, cell-free
[4] = system: Plasmodium falciparum; assay: Antiprotozoal activity against IEF stage of Plasmodium falciparum NF54 after 48 hrs by [3H]-hypoxanthine incorporation assay; type: functional, organism-based
[5] = system: Staphylococcus aureus; assay: Antibacterial activity against Staphylococcus aureus ATCC 29213 assessed as growth inhibition up to 128 ug/ml; type: functional, organism-based
[6] = system: Staphylococcus aureus; assay: Antibacterial activity against methicillin-resistant Staphylococcus aureus ATCC 43300 assessed as growth inhibition up to 128 ug/ml; type: functional, organism-based
[7] = system: Enterococcus faecalis; assay: Antibacterial activity against Enterococcus faecalis ATCC 29212 assessed as growth inhibition up to 128 ug/ml; type: functional, organism-based
[8] = system: Micrococcus luteus; assay: Antibacterial activity against Micrococcus luteus ATCC 9341 assessed as growth inhibition up to 128 ug/ml; type: functional, organism-based
[9] = system: Escherichia coli; assay: Antibacterial activity against Escherichia coli ATCC 25922 assessed as growth inhibition up to 128 ug/ml; type: functional, organism-based
[10] = system: Pseudomonas aeruginosa; assay: Antibacterial activity against Pseudomonas aeruginosa ATCC 27853 assessed as growth inhibition up to 128 ug/ml; type: functional, organism-based

Work on CC(C)C[C@@H](N)C(=O)N[C@@H](CC(C)C)C(=O)N(C)[C@@H](CC(C)C)C(=O)N(C)[C@@H](CC(C)C)C(=O)NCCc1ccccc1 yielded an IC50 [1] of 1.4 to 2.1 µg/mL (≈ 2.33 to 3.49 µM).

With CN[C@@H](CC(C)C)C(=O)N(C)[C@@H](CC(C)C)C(=O)N(C)[C@@H](CC(C)C)C(=O)N(C)[C@@H](CC(C)C)C(=O)NCCc1cccc2ccccc12 (H-[NMeL][NMeL][NMeL][NMeL]-{NH(2-(1-naphthyl)ethyl)}) the IC50 [1] was 1 µg/mL (≈ 1.47 µM).

With CN[C@H](C(=O)N(C)[C@H](C(=O)N(C)[C@H](C(=O)N(C)[C@@H](CC(C)C)C(=O)NCCc1ccccc1)C(C)C)C(C)C)C(C)C (H-[NMeV][NMeV][NMeV][NMeL]-NHPhenethyl) the permeability [2] was “Permeable” and the half-life at 500 µM [3] was over 4 h.

With CN[C@@H](Cc1ccccc1)C(=O)N(C)[C@@H](Cc1ccccc1)C(=O)N(C)[C@@H](Cc1ccccc1)C(=O)N(C)[C@@H](Cc1ccccc1)C(=O)N(C)[C@@H](Cc1ccccc1)C(=O)NCCc1ccccc1 (H-[NMeF][NMeF][NMeF][NMeF][NMeF]-NHPhenethyl) the IC50 [4] was 0.2 µg/mL (≈ 0.216 µM), the Activity [1] was “Active” and the “growth inhibition (GI)” value [5] was “inactive”. The “growth inhibition (GI)” value [6] was “inactive”, the “growth inhibition (GI)” value [7] was “inactive” and the “growth inhibition (GI)” value [8] was “inactive”. For the same compound, the “growth inhibition (GI)” value [9] was “inactive” and the “growth inhibition (GI)” value [10] was “inactive”.

With CN[C@@H](CC(C)C)C(=O)N(C)[C@@H](CC(C)C)C(=O)N(C)[C@@H](CC(C)C)C(=O)N(C)[C@@H](CC(C)C)C(=O)NCCc1c[nH]c2ccccc12 (H-[NMeL][NMeL][NMeL][NMeL]-Tryptamide) the IC50 [4] was 0.6 µg/mL (≈ 0.897 µM).

In the case of CN[C@@H](Cc1ccccc1)C(=O)N(C)[C@@H](Cc1ccccc1)C(=O)N(C)[C@@H](Cc1ccccc1)C(=O)N(C)[C@@H](Cc1ccccc1)C(=O)N(C)[C@@H](Cc1ccccc1)C(=O)N(C)[C@@H](Cc1ccccc1)C(=O)NCCc1ccccc1 (H-[NMeF][NMeF][NMeF][NMeF][NMeF][NMeF]-NHPhenethyl), the Activity [1] is reported as “Active”.

In the case of CN[C@H](C(=O)N(C)[C@H](C(=O)N(C)[C@H](C(=O)N(C)[C@H](C(=O)N(C)[C@H](C(=O)N(C)[C@@H](Cc1ccccc1)C(=O)NCCc1ccccc1)C(C)C)C(C)C)C(C)C)C(C)C)C(C)C (H-[NMeV][NMeV][NMeV][NMeV][NMeV][NMeF]-NHPhenethyl), the “growth inhibition (GI)” value [5] is reported as “inactive”, the “growth inhibition (GI)” value [6] is reported as “inactive” and the “growth inhibition (GI)” value [7] is reported as “inactive”. For the same compound, the “growth inhibition (GI)” value [8] was “inactive”, the “growth inhibition (GI)” value [9] was “inactive” and the “growth inhibition (GI)” value [10] was “inactive”.

In the case of CN[C@@H](CC(C)C)C(=O)N(C)[C@@H](CC(C)C)C(=O)N(C)[C@@H](CC(C)C)C(=O)N(C)[C@@H](CC(C)C)C(=O)N(C)[C@@H](CC(C)C)C(=O)N(C)[C@@H](CC(C)C)C(=O)N(C)[C@@H](CC(C)C)C(=O)NCCc1ccccc1 (H-[NMeL][NMeL][NMeL][NMeL][NMeL][NMeL][NMeL]-NHPhenethyl), the Activity [1] is reported as “Active”.

CC(C)C[C@@H](NC=O)C(=O)N[C@@H]1C(=O)N[C@H](Cc2ccccc2)C(=O)N[C@H](C(C)C)C(=O)N[C@@H](Cc2ccc(O)cc2)C(=O)N[C@@H](Cc2c[nH]c3ccccc23)C(=O)O[C@@H]1C gave an IC50 [4] of 0.995 µg/mL (≈ 1.19 µM).

In the case of CN[C@@H](CC(C)C)C(=O)N(C)[C@@H](CC(C)C)C(=O)N(C)[C@@H](CC(C)C)C(=O)N(C)[C@@H](CS)C(=O)NCCc1ccccc1 (H-[NMeL][NMeL][NMeL][NMeC]-NHPhenethyl), the IC50 [1] is reported as 5.6 µg/mL (≈ 9.03 µM).

In the case of CN[C@@H](Cc1ccccc1)C(=O)N(C)[C@@H](Cc1ccccc1)C(=O)N(C)[C@@H](Cc1ccccc1)C(=O)N(C)[C@@H](Cc1ccccc1)C(=O)NCCc1ccccc1 (H-[NMeF][NMeF][NMeF][NMeF]-NHPhenethyl), the Activity [1] is reported as “Active”.

With CN[C@H](C(=O)N(C)[C@H](C(=O)N(C)[C@H](C(=O)N(C)[C@H](C(=O)N(C)[C@H](C(=O)N(C)[C@H](C(=O)N(C)[C@H](C(=O)NCCc1ccccc1)C(C)C)C(C)C)C(C)C)C(C)C)C(C)C)C(C)C)C(C)C (H-[NMeV][NMeV][NMeV][NMeV][NMeV][NMeV][NMeV]-NHPhenethyl) the Activity [1] was “Active”.

Work on CN[C@@H](CC(C)C)C(=O)N(C)[C@@H](CC(C)C)C(=O)N(C)[C@@H](CC(C)C)C(=O)N(C)[C@@H](CC(C)C)C(=O)N(C)[C@H](CC(C)C)C(=O)NCCc1ccccc1 yielded an IC50 [1] of 1.4 to 2.1 µg/mL (≈ 1.85 to 2.77 µM).

In the case of CN[C@H](CC(C)C)C(=O)N(C)[C@H](CC(C)C)C(=O)N(C)[C@H](CC(C)C)C(=O)N(C)[C@H](CC(C)C)C(=O)NCCc1ccccc1, the IC50 [1] is reported as 1.4 to 2.1 µg/mL (≈ 2.22 to 3.33 µM).

In the case of CN[C@H](CC(C)C)C(=O)N(C)[C@@H](CC(C)C)C(=O)N(C)[C@@H](CC(C)C)C(=O)N(C)[C@@H](CC(C)C)C(=O)NCCc1ccccc1, the IC50 [1] is reported as 1.4 to 2.1 µg/mL (≈ 2.22 to 3.33 µM).

Compound CN[C@@H](CC(C)C)C(=O)N(C)[C@@H](CC(C)C)C(=O)N(C)[C@@H](CC(C)C)C(=O)N(C)[C@@H](C)C(=O)NCCc1ccccc1 (H-[NMeL][NMeL][NMeL][NMeA]-NHPhenethyl) has an IC50 [4] of 31 µg/mL (≈ 52.7 µM).

For CN[C@@H](CC(C)C)C(=O)N(C)[C@@H](CC(C)C)C(=O)N(C)[C@@H](CC(C)C)C(=O)N(C)[C@@H](CC(C)C)C(=O)N(C)[C@@H](CC(C)C)C(=O)NCCc1ccccc1, the Activity [1] was “Active”.
